# From patent publication US20240066087A1, “SUTHERLANDIA EXTRACT AND THE USE THEREOF IN THE MANUFACTURE OF A MEDICAMENT” (ACUPHARM INTERNATIONAL PROPRIETARY LIMITED, priority 2020, published 2024)
# System: cultured tissue from needle biopsy, Breast DCIS papillary neoplasm
# Experiment: dose response study with cumulative cell death on cultured patient biopsy tissue (patient 19055)
# Type: cell-based, human
# Conditions: in vitro cultured biopsy sample, patient 19055, Breast DCIS papillary neoplasm
# Procedure: Comparative studies were performed using Sutherlandia leaf extract in water (referred to as ACPJL35), Sutherlandia leaf extract in 50% ethanol and water solution (referred to as ACPJL28), and Sutherlandia leaf extract in 90% ethanol and water solution (referred to as ACPJL07). These extracts were compared to a number of known botanical isolates with anti-cancer activity, as well as a number of known anti-cancer drugs, using a dose response design with cumulative cell death as the dependent variable. These studies were conducted on in vitro samples of cultured tissue, taken as biopsy samples from patients as part of a standard culture and testing process done in order to optimise treatment.
# Patient from whom sample was obtained was a person presenting with a diagnosis of Breast DCIS papillary neoplasm. The sample was obtained via needle biopsy, before being cultured.
row,SMILES,"efficacy assessment from dose response (dose-CR curve), cumulative cell death as dependent variable"
1,CCC1=C[C@@H]2CN(C1)Cc1c([nH]c3ccccc13)[C@@](C(=O)OC)(c1cc3c(cc1OC)N(C)[C@H]1[C@@](O)(C(=O)OC)[C@H](OC(C)=O)[C@]4(CC)C=CCN5CC[C@]31[C@@H]54)C2 [Vinorelbine],having potential benefit
2,CC(=O)O[C@@]12CO[C@@H]1C[C@H](O)[C@@]1(C)C(=O)[C@H](O)C3=C(C)[C@@H](OC(=O)[C@H](O)[C@@H](NC(=O)OC(C)(C)C)c4ccccc4)C[C@@](O)([C@@H](OC(=O)c4ccccc4)[C@H]21)C3(C)C [Docetaxel],having potential benefit
3,Nc1nc(Cl)nc2c1ncn2[C@@H]1O[C@H](CO)[C@@H](O)[C@@H]1F [Clofarabine],having potential benefit
4,O=C1c2c(O)ccc(O)c2C(=O)c2c(NCCNCCO)ccc(NCCNCCO)c21 [Mitoxantrone],having potential benefit
5,COc1cc2c(Oc3ccc4[nH]c(C)cc4c3F)ncnc2cc1OCCCN1CCCC1 [Cediranib],having potential benefit
6,CC[C@]1(O)C[C@H]2CN(CCc3c([nH]c4ccccc34)[C@@](C(=O)OC)(c3cc4c(cc3OC)N(C=O)[C@H]3[C@@](O)(C(=O)OC)[C@H](OC(C)=O)[C@]5(CC)C=CCN6CC[C@]43[C@@H]65)C2)C1 [Vincristine],having potential benefit
7,COC(=O)c1ccc2c(c1)NC(=O)/C2=C(\Nc1ccc(N(C)C(=O)CN2CCN(C)CC2)cc1)c1ccccc1 [Nintedanib],good efficacy and a positive dose response curve
8,COc1cc2ncnc(Nc3ccc(F)c(Cl)c3)c2cc1OCCCN1CCOCC1 [Gefitinib],having potential benefit
9,CC(=O)O[C@H]1C(=O)[C@@]2(C)[C@H]([C@H](OC(=O)c3ccccc3)[C@]3(O)C[C@H](OC(=O)[C@H](O)[C@@H](NC(=O)c4ccccc4)c4ccccc4)C(C)=C1C3(C)C)[C@]1(OC(C)=O)CO[C@@H]1C[C@@H]2O [Paclitaxel],having potential benefit
10,O=C(CCCCCCC(=O)Nc1ccccc1)NO [Vorinostat],having potential benefit
